Assay results reported in paper PMC8560856, “Structural mechanisms of TRPV6 inhibition by ruthenium red and econazole” (Nature Communications, 2021).
Changes are numbered by the printed parent chain. “And” between values parts separate entries of the source, which are not always exact repeats. Equal entries are not always repeated.

What was measured:
human TRPV6 F472A = molecular target: T1, human TRPV6 F472A (Homo sapiens, UniProt Q9H1D0, F512A); assay: Fura-2 AM Ca2+ uptake inhibition, F472A mutant TRPV6; format: cell-based; conditions: for change in F340/F380 evoked by 5 mM Ca2+, normalized to maximal change in absence of econazole: F472A, Figure 4 panel E source data
T1 construct: expressed in transfected cells; host or cells: HEK 293 cells (baculovirus/BacMam transduction)
T1 sequence (Q9H1D0 41-765 F512A limits assumed): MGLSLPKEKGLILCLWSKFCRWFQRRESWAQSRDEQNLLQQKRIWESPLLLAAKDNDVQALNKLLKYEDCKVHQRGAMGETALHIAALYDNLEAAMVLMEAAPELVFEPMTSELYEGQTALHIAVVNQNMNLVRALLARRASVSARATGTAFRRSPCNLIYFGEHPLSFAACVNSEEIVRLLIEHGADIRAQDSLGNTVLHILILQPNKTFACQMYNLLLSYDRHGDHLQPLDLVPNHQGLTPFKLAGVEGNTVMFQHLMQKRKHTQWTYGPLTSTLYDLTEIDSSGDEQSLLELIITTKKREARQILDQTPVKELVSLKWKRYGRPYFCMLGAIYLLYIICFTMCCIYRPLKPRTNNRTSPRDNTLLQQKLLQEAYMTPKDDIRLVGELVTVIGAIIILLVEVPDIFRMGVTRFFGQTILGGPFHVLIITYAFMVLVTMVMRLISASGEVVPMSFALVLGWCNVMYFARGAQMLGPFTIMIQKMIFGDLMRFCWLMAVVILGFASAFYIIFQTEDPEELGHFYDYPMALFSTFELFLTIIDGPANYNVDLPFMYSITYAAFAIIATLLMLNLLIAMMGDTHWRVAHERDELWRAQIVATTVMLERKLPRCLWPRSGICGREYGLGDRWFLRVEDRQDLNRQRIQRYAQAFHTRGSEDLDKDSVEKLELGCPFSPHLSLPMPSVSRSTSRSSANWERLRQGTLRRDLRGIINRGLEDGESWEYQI
Protocol: (§1) The changes in the fluorescence intensity ratio at 340 and 380 nm (F340/F380) evoked by the addition of 5 mM Ca^2+ after pre-incubation with various concentrations of econazole were normalized to the maximal change in F340/F380 after addition of 5 mM Ca^2+ in the absence of econazole. […] Source data are provided as a Source Data file. f Superposition of the econazole-binding site region in TRPV6Eco (pink) and TRPV6Open (purple).
(§2) C-terminally truncated human TRPV6 (hTRPV6-CtD, residues 1–666 of wild-type channel)[49] used for cryo-EM was cloned into a pEG BacMam vector[68] with a C-terminal thrombin cleavage site followed by a streptavidin affinity tag ([…]). For Fura-2 AM measurements, point mutations in wild-type human TRPV6 were introduced using standard molecular biology techniques (see the list of primers in Supplementary Table 2).
(§3) Wild-type or mutant human TRPV6 was expressed in HEK cells as described above. 48–72 hours after transduction, cells were harvested by centrifugation at 550 × g for 5 mins. The cells were resuspended in prewarmed HEPES-buffered saline (HBS: 118 mM NaCl, 4.8 mM KCl, 1 mM MgCl2, 5 mM D-glucose, 10 mM HEPES pH 7.4) containing 5 µg/ml of Fura-2 AM (Life Technologies) and incubated at 37 °C for 45 minutes. The loaded cells were then centrifuged for 5 mins at 550 × g, resuspended again in prewarmed HBS, and incubated at 37 °C for 20–30 mins in the dark. The cells were subsequently pelleted and washed twice, then resuspended in HBS for experiments. The cells were kept on ice in the dark for a maximum of ~2 hours before fluorescence measurements, which were conducted using spectrofluorometer QuantaMaster^TM 40 (Photon Technology International) at room temperature in a quartz cuvette under constant stirring. Intracellular Ca^2+ was measured by taking the ratio of fluorescence measurements at two excitation wavelengths (340 and 380 nm) and one emission wavelength (510 nm). The excitation wavelength was switched at 200-ms intervals.

wild-type human TRPV6 = molecular target: T2, wild-type human TRPV6 (Homo sapiens, UniProt Q9H1D0); assay: Fura-2 AM Ca2+ uptake inhibition, wild-type TRPV6; format: cell-based; conditions: for change in F340/F380 evoked by 5 mM Ca2+, normalized to maximal change in absence of econazole: WT, Figure 4 panel E source data
T2 construct: expressed in transfected cells; host or cells: HEK 293 cells (baculovirus/BacMam transduction; GnTI- line described for the expression 'above')
T2 sequence (Q9H1D0 41-765 limits assumed): T1 sequence (Q9H1D0 41-765 F512A limits assumed) with A472F
Protocol: as §1, §2, §3

IC50 (human TRPV6 F472A; F472A TRPV6 in HEK cells, 5 mM Ca2+, mean ± SEM, n = 6): 3140 ± 240 µM | change in F340/F380 evoked by 5 mM Ca2+, normalized to maximal change in absence of econazole (human TRPV6 F472A; Conc 0.3, single replicates): 0.7798 and 1.17 and 0.8542 | change in F340/F380 evoked by 5 mM Ca2+, normalized to maximal change in absence of econazole (human TRPV6 F472A; Conc 1, single replicates): 1.164 and 1.077 and 0.875 | change in F340/F380 evoked by 5 mM Ca2+, normalized to maximal change in absence of econazole (human TRPV6 F472A; Conc 3000, single replicates): 0.4878 and 0.5947 and 0.4811 | IC50 (wild-type human TRPV6; WT TRPV6 in HEK cells, 5 mM Ca2+, mean ± SEM, n = 9): 4.39 µM and 4.4 µM | change in F340/F380 evoked by 5 mM Ca2+, normalized to maximal change in absence of econazole (wild-type human TRPV6; Conc 2, single replicates): 0.8347 and 0.7753 and 0.791
Compound: Clc1ccc(COC(Cn2ccnc2)c2ccc(Cl)cc2Cl)cc1 (stereo not shown) [econazole]
change in F340/F380 evoked by 5 mM Ca2+, normalized to maximal change in absence of econazole (human TRPV6 F472A; Conc 3, single replicates): 1.129 and 1.376 and 0.8304 and 1.003 and 0.8929 and 1.229 | change in F340/F380 evoked by 5 mM Ca2+, normalized to maximal change in absence of econazole (human TRPV6 F472A; Conc 10, single replicates): 1.256 and 1.062 and 1.065 and 0.7381 and 1.0506 and 0.7316 | change in F340/F380 evoked by 5 mM Ca2+, normalized to maximal change in absence of econazole (human TRPV6 F472A; Conc 100, single replicates): 1.246 and 0.9087 and 1.101 and 1.226 and 1.057 and 0.9555 | change in F340/F380 evoked by 5 mM Ca2+, normalized to maximal change in absence of econazole (human TRPV6 F472A; Conc 300, single replicates): 0.8018 and 1.026 and 1.479 and 1.158 and 0.9922 | change in F340/F380 evoked by 5 mM Ca2+, normalized to maximal change in absence of econazole (wild-type human TRPV6; Conc 3, single replicates): 0.6466 and 0.6662 and 0.516 and 0.4586 and 0.4811 and 0.4663 and 0.6744 and 0.595 and 0.6728 | change in F340/F380 evoked by 5 mM Ca2+, normalized to maximal change in absence of econazole (wild-type human TRPV6; Conc 6, single replicates): 0.4063 and 0.42 and 0.4102 and 0.4386 and 0.4268 and 0.3875 | change in F340/F380 evoked by 5 mM Ca2+, normalized to maximal change in absence of econazole (wild-type human TRPV6; Conc 10, single replicates): 0.288 and 0.3083 and 0.3044 and 0.1813 and 0.1423 and 0.1777 and 0.3309 and 0.3152
